The subject of one series is H1N1. Conditions: cited from earlier work.
In another series the test system is VV. Conditions: cited from earlier work.
The next series relates to VSV-GP-EboV. To be noted: cited from earlier work.
The nature of series [1]: in vitro. To be noted: human.
Series [2] relates to Marburg pseudovirus (GP MARV).
The subject of series [3] is Marburg pseudovirus (GP MARV). In words: microbe, parasite or virus in culture. Conditions: 24 h.
Series [4] is described as follows: in vitro. To be noted: African green monkey.
For series [5], the system named is vaccinia virus (strain Copenhagen). Briefly: microbe, parasite or virus in culture. Conditions: Orthopoxvirus vaccinia, Vero, 96 h.
Series [6] shares this test system.

Molecules are shown by their SMILES. Read-outs that look alike come from different tables or passages of the source.

The text below walks through data of publication PMC9331314, “Synthesis and Antiviral Properties of Camphor-Derived Iminothiazolidine-4-Ones and 2,3-Dihydrothiazoles” (Molecules, 2022).

As usually defined, the IC50 is the concentration at which inhibition is half-maximal.

Consider `CC1(C)[C@H]2CC[C@]1(C)[C@H](OC(=O)CCN1CCOCC1)C2` [Ib], for which, in the series with H1N1, the concentration for half-maximal inhibition (IC50) is 12.2 µM and the SI is 45. Besides, in the series on VV, the IC50 was 3.5 µM and the SI was 48.
For `COc1ccc(-c2csc(N/N=C3\C[C@H]4CC[C@]3(C)C4(C)C)n2)cc1` [Vc], in the series with VV, the IC50 was 3.7 µM and the SI was 26.
For the compound `CC1(C)[C@H]2CC[C@]1(C)[C@H](OC(=O)CN1CCOCC1)C2` [IIa], the results for the IC50 in the series on H1N1, in the series with VSV-GP-EboV and in the series with VV were 7.1 µM, 24.9 µM and 17.9 µM, respectively. Besides, the SI with H1N1 is given as 82; with VSV-GP-EboV it was 13; in the series with VV it was 56.
Take `CC1(C)[C@@H]2CC[C@@]1(CS(=O)(=O)N1CCOCC1)C(=O)C2` [IVa]: in the series on VSV-GP-EboV, the IC50 was 0.9 µM and the SI was 921.
For `CN1CCN(CCC(=O)O[C@@H]2C[C@@H]3CC[C@@]2(C)C3(C)C)CC1` [Ic], the results for the IC50 in the series on H1N1 and with VSV-GP-EboV were 1.9 µM and 0.3 µM, respectively. Besides, the SI with H1N1 was 215; in the series on VSV-GP-EboV, 870.
In the case of `C=CCN1C(=O)C(C)(C)S/C1=N/N=C1/C[C@H]2CC[C@]1(C)C2(C)C` [Compound 4b, (Z)-3-allyl-5,5-dimethyl-2-((E)-((1R,4R)-1,7,7-trimethylbicyclo[2.2.1]heptan-2-ylidene)hydrazono)thiazolidin-4-one], the CC50 was 959.5 ± 6.8 µM in the series “in vitro [1]” and “least toxicity” in the series with HEK293FT cells. Also, the “SI (CC50/IC50)” value in series [2] was determined as 4. Moreover, the IC50 in [3] was found to be 255 ± 45 µM.
For `CC1(C)[C@@H]2CC[C@@]1(C)/C(=N/Nc1nc(-c3ccc(Cl)cc3)cs1)C2` [Va], in the series on VV, the IC50 is 2.7 µM and the SI is listed as 24.
For `CC12CCC(CC1=NN=C1SCC(=O)N1c1ccccc1)C2(C)C` [Compound 3a, ((Z)-3-phenyl-2-((E)-((1R,4R)-1,7,7-trimethylbicyclo[2.2.1]heptan-2-ylidene)hydrazono)thiazolidin-4-one], the CC50 is 1260 ± 52.7 µM in “in vitro [1]”, “least toxicity” in the series on HEK293FT cells and 290 ± 39.1 µM in the series “in vitro [4]”. In addition, the “SI (CC50/IC50)” value in [2] was 5. Also, the concentration for half-maximal inhibition (IC50) in series [3] is 237 ± 5.9 µM.
For `CC1(C)[C@@H]2CC[C@@]1(C)/C(=N/N=c1/scc(-c3ccc(Cl)cc3)n1-c1ccccc1)C2` [Compound 5a, (E)-4-(4-chlorophenyl)-3-phenyl-2-((E)-((1R,4R)-1,7,7-trimethylbicyclo[2.2.1]heptan-2-ylidene)hydrazono)-2,3-dihydrothiazole] the same measures were 872 ± 52.8 µM, “least toxicity”, 229 ± 24.7 µM, 8 and 103 ± 6.9 µM.
In the case of `CNC(=S)N/N=C1\C[C@@H]2CC[C@@]1(C)C2(C)C` [2′d, (E)-N-methyl-2-((1S,4S)-1,7,7-trimethylbicyclo[2.2.1]heptan-2-ylidene)hydrazinecarbothioamide], the figures for the CC50 in “in vitro [1]”, in “in vitro [4]” and in the series on Vero cells were 66.9 ± 18.2 µM, 130 ± 14.2 µM and “least cytotoxicity”, respectively. In addition, the “SI (CC50/IC50)” value in series [2] amounted to 2; in [6], 5. Also, the half-inhibitory concentration (IC50) was 35 ± 5.8 µM in series [5], “low” in series [6] and 29.2 ± 4.2 µM in series [3].
With `CC1(C)[C@@H]2CC[C@@]1(C)/C(=N/Nc1nc(-c3ccc(Br)cc3)cs1)C2` [Vb], in the series on VV, the IC50 is 2.4 µM and the SI was 32.
With `CCN1CCN(CCC(=O)N[C@@H]2C[C@H]3CC[C@]2(C)C3(C)C)CC1` [IIIa], in the series on VSV-GP-EboV, the IC50 was 0.6 µM and the SI is on record as 908.
Consider `Cn1c(-c2ccc(Cl)cc2)cs/c1=N/N=C1\C[C@H]2CC[C@]1(C)C2(C)C` [Compound 5d, (E)-4-(4-chlorophenyl)-3-methyl-2-((E)-((1R,4R)-1,7,7-trimethylbicyclo[2.2.1]heptan-2-ylidene)hydrazono)-2,3-dihydrothiazole], for which the values for the CC50 in the series “in vitro [1]”, in the series “in vitro [4]” and in the series with Vero cells were 107 ± 5.3 µM, 144 ± 18.7 µM and “least toxic”, respectively. Moreover, the “SI (CC50/IC50)” value in series [2] came to 10. The IC50 in series [5] was 2.6 ± 0.2 µM; in series [3], 10.7 ± 2.7 µM.
For `CC1(C)[C@@H]2CC[C@@]1(C)[C@H](NC(=O)CN1CCOCC1)C2` [IIIb], the values for the IC50 with VSV-GP-EboV and in the series with VV were 5.7 µM and 12.5 µM, respectively. Further, the SI was 147 in the series on VSV-GP-EboV and 40 with VV.
Turning to `CC1CCN(CCC(=O)O[C@@H]2C[C@@H]3CC[C@@]2(C)C3(C)C)CC1` [Ia], in the series with VSV-GP-EboV, the IC50 was 0.3 µM and the SI is 956.
With `CC1(C)[C@@H]2CC[C@@]1(CS(=O)(=O)n1cncn1)C(=O)C2` [IVb], in the series on VSV-GP-EboV, the IC50 was 1 µM and the SI is 1764.
`CCN1C(=O)CS/C1=N/N=C1/C[C@H]2CC[C@]1(C)C2(C)C` [Compound 3c, (Z)-3-ethyl-2-((E)-((1R,4R)-1,7,7-trimethylbicyclo[2.2.1]heptan-2-ylidene)hydrazono)thiazolidin-4-one]: the results for the CC50 in the series “in vitro [1]” and in the series “in vitro [4]” were 54.1 ± 9.2 µM and 87 ± 10.1 µM, respectively. Besides, the results for the “SI (CC50/IC50)” value in series [2] and in series [6] were 2 and 4, respectively. For the same compound, the results for the IC50 in [5] and in series [3] were 24 ± 3.9 µM and 30.7 ± 6.8 µM, respectively.
As to `CNC(=S)N/N=C1\C[C@H]2CC[C@]1(C)C2(C)C` [Compound 2d, (E)-N-methyl-2-((1R,4R)-1,7,7-trimethylbicyclo[2.2.1]heptan-2-ylidene)hydrazinecarbothioamide], the CC50 in the series “in vitro [1]” was 62.8 ± 17.1 µM; in “in vitro [4]”, 150 ± 17.9 µM; in the series with Vero cells it was “least cytotoxicity”. The IC50 is 97 ± 19.8 µM in series [5], “low” in series [6] and 28 ± 4.2 µM in [3]. In addition, the “SI (CC50/IC50)” value in series [6] was 2.
For `CN1C(=O)C(C)(C)S/C1=N/N=C1/C[C@H]2CC[C@]1(C)C2(C)C` [Compound 4d, (Z)-3,5,5-trimethyl-2-((E)-((1R,4R)-1,7,7-trimethylbicyclo[2.2.1]heptan-2-ylidene)hydrazono)thiazolidin-4-one], the results for the CC50 in the series “in vitro [1]”, in “in vitro [4]” and in the series on Vero cells were 514 ± 34.1 µM, 310 ± 38.7 µM and “low toxicity”, respectively. The “SI (CC50/IC50)” value amounted to 13 in series [2] and 24 in series [6]. The results for the IC50 in series [5], in [6] and in series [3] were 12.7 ± 1.4 µM, “highest activity” and 39 ± 3.3 µM, respectively.
As for `CCN1C(=O)CS/C1=N/N=C1/C[C@@H]2CC[C@@]1(C)C2(C)C` [3′c, (Z)-3-ethyl-2-((E)-((1S,4S)-1,7,7-trimethylbicyclo[2.2.1]heptan-2-ylidene)hydrazono)thiazolidin-4-one], the CC50 in “in vitro [1]” worked out at 170 ± 40.9 µM; in the series “in vitro [4]” it was 220 ± 28.6 µM. In addition, the entries for the “SI (CC50/IC50)” value in series [2] and in [6] were 3 and 4, respectively. For the same compound, the IC50 in series [5] is 64 ± 12.3 µM; in series [3], 68.2 ± 20.4 µM.
As to `C=CCn1c(-c2ccccc2)cs/c1=N/N=C1\C[C@H]2CC[C@]1(C)C2(C)C` [Compound 8b, (E)-3-allyl-4-phenyl-2-((E)-((1R,4R)-1,7,7-trimethylbicyclo[2.2.1]heptan-2-ylidene)hydrazono)-2,3-dihydrothiazole], the CC50 was below 41 µM in “in vitro [1]” and 17 ± 2.9 µM in “in vitro [4]”. The “SI (CC50/IC50)” value in [2] is reported as below 2; in [6], 6. Moreover, the half-maximal inhibitory concentration (IC50) in series [5] was 3 ± 0.4 µM; in series [3], 19.2 ± 2.7 µM.
As to `CC1(C)[C@@H]2CC[C@@]1(C)/C(=N/NC(=S)Nc1ccccc1)C2` [Compound 2a, (E)-N-phenyl-2-((1R,4R)-1,7,7-trimethylbicyclo[2.2.1]heptan-2-ylidene)hydrazinecarbothioamide], the values for the CC50 in “in vitro [1]”, in the series “in vitro [4]” and in the series on Vero cells were 700 ± 43.1 µM, 24 ± 3.4 µM and “quite toxic”, respectively. Besides, the entries for the “SI (CC50/IC50)” value in series [2] and in series [6] were 2 and 4, respectively. For the same compound, the values for the IC50 in series [5], in [6] and in [3] were 6.7 ± 0.9 µM, “lower micromolar range” and 398 ± 33.2 µM, respectively.
Take `Cc1ccc(-c2cs/c(=N/N=C3\C[C@H]4CC[C@]3(C)C4(C)C)n2C)cc1` [Compound 6d, (E)-3-methyl-4-p-tolyl-2-((E)-((1R,4R)-1,7,7-trimethylbicyclo[2.2.1]heptan-2-ylidene)hydrazono)-2,3-dihydrothiazole]: the CC50 in the series “in vitro [1]” is 79.2 ± 8.5 µM; in “in vitro [4]”, 17 ± 3.1 µM. The “SI (CC50/IC50)” value in [2] and in series [6] was 3 in each case. Besides, the IC50 was 5.1 ± 0.7 µM in [5] and 28.3 ± 8.5 µM in series [3].
Take `CN1CCN(CC(=O)O[C@@H]2C[C@@H]3CC[C@@]2(C)C3(C)C)CC1` [IIb]: in the series on H1N1, the IC50 is 4.4 µM and the SI is listed as 23. For the same compound, in the series with VSV-GP-EboV, the IC50 was 6.8 µM and the SI is listed as 46.
Regarding `CC1(C)[C@H]2CC[C@]1(C)/C(=N/NC(=S)Nc1ccccc1)C2` [2′a, (E)-N-phenyl-2-((1S,4S)-1,7,7-trimethylbicyclo[2.2.1]heptan-2-ylidene)hydrazinecarbothioamide], the CC50 in the series “in vitro [1]” was 280 ± 38.6 µM; in “in vitro [4]” it was 16 ± 2.8 µM; with Vero cells, “quite toxic”. The IC50 is 4.3 ± 1.8 µM in series [5], “lower micromolar range” in series [6] and 5.9 ± 2.1 µM in series [3]. Besides, the “SI (CC50/IC50)” value in [6] is reported as 4.
Take `C=CCNC(=S)N/N=C1\C[C@H]2CC[C@]1(C)C2(C)C` [Compound 2b, (E)-N-allyl-2-((1R,4R)-1,7,7-trimethylbicyclo[2.2.1]heptan-2-ylidene)hydrazinecarbothioamide]: the CC50 in “in vitro [1]” was 128 ± 37.8 µM; in “in vitro [4]”, 200 ± 23.8 µM; in the series with Vero cells it was “least cytotoxicity”. The “SI (CC50/IC50)” value in series [2] stood at 5. Besides, the figures for the IC50 result in [6] and in series [3] were “low” and 24.5 ± 3.8 µM, respectively.
